Data published in PMC5011760, “Luteolin Attenuates Airway Mucus Overproduction via Inhibition of the GABAergic System” (Scientific Reports, 2016).

Test system: T1, GABAA receptors (GABAAR) in A549 cells
T1 construct: gene GABRA3; endogenous receptors of A549 cells, pentameric; exact subunit composition not determined (members = most abundant subunit mRNAs)
Assay: whole-cell patch clamp, A549 cells
Assay type: cell-based
Settings: inhibition of currents evoked by 2.5 μM GABA; -60 mV, pH 7.4; authors call it allosteric modulator

For `O=c1cc(-c2ccc(O)c(O)c2)oc2cc(O)cc(O)c12` [luteolin, 3′,4′,5,7-tetrahydroxyflavone], the IC50 was 8.2 µM.
